Test results reported in US10738028B2, “Spiro three-membered ring, spiro five-membered ring peptide deformylase inhibitor and use thereof in antibacteria and anti-tumor” (priority 2016, dated 2020).
In brackets after ≈: the same amount, converted by molar mass. Read-outs that look alike come from different tables or passages of the source.

What was measured:
Assay type in all cases: cell-based
[1] = test system: Enterococcus faecalis (EFA); experiment: MIC, two-fold agar dilution (CLSI), clinical isolates
Method in brief: (§1)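 Samples are serially diluted two-fold in agar following CLSI guidance. Plates are then inoculated with the tested strains. The lowest inhibiting concentration is recorded as MIC.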

[2] = test system: Enterococcus faecium (EFM); experiment: as above
Method in brief: as §1

[3] = test system: Escherichia coli (including ESBLs, non-ESBLs); experiment: as above
Method in brief: as §1

[4] = test system: Moraxella catarrhalis (BCA); experiment: as above; conditions: for MIC: Moraxella catarrhalis
Method in brief: as §1

[5] = test system: Streptococcus pneoumoniae (SPN); experiment: as above
Method in brief: as §1

[6] = test system: methicillin-resistant Staphylococcus aureus (MRSA); experiment: as above
Method in brief: as §1

[7] = test system: methicillin-resistant Staphylococcus epidermidis (MRSE); experiment: as above
Method in brief: as §1

[8] = test system: methicillin-sensitive Staphylococcus aureus (MSSA); experiment: as above
Method in brief: as §1

[9] = test system: methicillin-sensitive Staphylococcus epidermidis (MSSE); experiment: as above
Method in brief: as §1

[10] = test system: HCT-116 colorectal cancer cell line; experiment: CCK-8 proliferation inhibition; conditions: Homo sapiens, HCT-116, 72 h, concentration of 30 μM, 72 hours, CCK-8
Method in brief: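 Cells seeded at 2000 cells/well, cultured overnight at 37 °C, 5% CO2, then exposed to compound (DMSO; control 1‰ DMSO) for 72 h in McCoy's 5A with 10% newborn bovine serum. Viability read with 1:10 diluted CCK-8.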

[11] = test system: A549 lung cancer cell line; experiment: CCK-8 proliferation inhibition; conditions: Homo sapiens, A549, 72 h, concentration of 30 μM
Method in brief: (§2)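 Plating at 2000 cells/well, then incubation overnight at 37° C. Next, a range of compound concentrations for 72 hours (control 1‰ DMSO). Finally, medium decanted and CCK-8 diluted 1:10 added.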

[12] = test system: BEL-7402 liver cancer cell line; experiment: CCK-8 proliferation inhibition; conditions: concentration of 30 μM
Method in brief: as §2

[13] = test system: MGC-803 gastric cancer cell line; experiment: CCK-8 proliferation inhibition; conditions: Homo sapiens, MGC-803, 72 h, concentration of 30 μM
Method in brief: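 Cells seeded at 2000 cells/well, cultured overnight at 37 °C, 5% CO2, then exposed 72 h to compound dilutions in medium with 10% newborn bovine serum (1‰ DMSO control). Viability read with 1:10 diluted CCK-8 solution. Media: PC3 in F12; MGC-803 and Jurkat in 1640; MCF-7 in DMEM high glucose.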

[14] = MIC in vitro anti-bacterial experiments, Gram-positive bacteria; conditions: lowest MIC reached; read-out: minimum inhibitory concentration against Gram-positive bacteria
Source text: 1. The invention adopts the two-fold agar dilution method recommended by the operating procedure of antimicrobial susceptibility testing set by American Clinical and Laboratory Standards Institute (CLSI) to determine the Minimum Inhibitory Concentration (MIC) of the test samples against the tested strains.

**Q.** Which MIC (anti-bacterial activity) ([1]; strain EFA 15-1) does the source give for Cc1csc(NC(=O)[C@@H]2CC3(CC3)CN2C(=O)[C@H](CC2CCCC2)CN(O)C=O)n1 [Example 33] here?
**A.** The MIC (anti-bacterial activity) was 1 µg/mL (≈ 2.3 µM).

**Q.** What about the MIC (anti-bacterial activity) ([1]; strain EFA 15-2) of the same molecule?
**A.** The MIC (anti-bacterial activity) was 1 µg/mL (≈ 2.3 µM).

**Q.** And the MIC (anti-bacterial activity) ([1]; strain EFA 15-3)?
**A.** The MIC (anti-bacterial activity) was 1 µg/mL (≈ 2.3 µM).

**Q.** And the MIC (anti-bacterial activity) ([1]; strain EFA 15-4)?
**A.** Its MIC (anti-bacterial activity) is 1 µg/mL (≈ 2.3 µM).

**Q.** And the MIC (anti-bacterial activity) ([1]; strain EFA 15-5)?
**A.** Its MIC (anti-bacterial activity) is 1 µg/mL (≈ 2.3 µM).

**Q.** What about the MIC (anti-bacterial activity) ([1]; strain EFA 15-6) of the same molecule?
**A.** Its MIC (anti-bacterial activity) is 1 µg/mL (≈ 2.3 µM).

**Q.** What about the MIC (anti-bacterial activity) ([1]; strain EFA 15-9) of the same molecule?
**A.** Its MIC (anti-bacterial activity) is 1 µg/mL (≈ 2.3 µM).

**Q.** And the MIC (anti-bacterial activity) ([2]; strain EFM 15-1)?
**A.** The MIC (anti-bacterial activity) was 0.5 µg/mL (≈ 1.15 µM).

**Q.** What about the MIC (anti-bacterial activity) ([2]; strain EFM 15-2) of the same molecule?
**A.** Its MIC (anti-bacterial activity) is 0.5 µg/mL (≈ 1.15 µM).

**Q.** What about the MIC (anti-bacterial activity) ([2]; strain EFM 15-3) of the same molecule?
**A.** Its MIC (anti-bacterial activity) is 0.125 µg/mL (≈ 0.288 µM).

**Q.** What about the MIC (anti-bacterial activity) ([2]; strain EFM 15-4) of the same molecule?
**A.** The MIC (anti-bacterial activity) was 0.5 µg/mL (≈ 1.15 µM).

**Q.** And the MIC (anti-bacterial activity) ([2]; strain EFM 15-5)?
**A.** Its MIC (anti-bacterial activity) is 0.5 µg/mL (≈ 1.15 µM).

**Q.** And the MIC (anti-bacterial activity) ([2]; strain EFM 15-6)?
**A.** The MIC (anti-bacterial activity) was 0.5 µg/mL (≈ 1.15 µM).

**Q.** What about the MIC (anti-bacterial activity) ([3]; strain ECO+ 15-1) of the same molecule?
**A.** The MIC (anti-bacterial activity) was > 32 µg/mL.

**Q.** What about the MIC (anti-bacterial activity) ([3]; strain ECO+ 15-2) of the same molecule?
**A.** The MIC (anti-bacterial activity) was > 32 µg/mL.

**Q.** What about the MIC (anti-bacterial activity) ([3]; strain ECO+ 15-3) of the same molecule?
**A.** Its MIC (anti-bacterial activity) is > 32 µg/mL.

**Q.** And the MIC (anti-bacterial activity) ([3]; strain ECO+ 15-4)?
**A.** The MIC (anti-bacterial activity) was > 32 µg/mL.

**Q.** What about the MIC (anti-bacterial activity) ([3]; strain ECO− 15-1) of the same molecule?
**A.** The MIC (anti-bacterial activity) was > 32 µg/mL.

**Q.** And the MIC (anti-bacterial activity) ([3]; strain ECO− 15-2)?
**A.** The MIC (anti-bacterial activity) was > 32 µg/mL.

**Q.** And the MIC (anti-bacterial activity) ([3]; strain ECO− 15-3)?
**A.** Its MIC (anti-bacterial activity) is > 32 µg/mL.

**Q.** What about the MIC (anti-bacterial activity) ([3]; strain ECO− 15-4) of the same molecule?
**A.** Its MIC (anti-bacterial activity) is > 32 µg/mL.

**Q.** What about the MIC ([4]; 7 clinical isolates, range over strains, read-out: Moraxella catarrhalis (n = 7) MIC) of the same molecule?
**A.** Its MIC is 0.06 to 0.25 µg/mL (≈ 0.138 to 0.575 µM).

**Q.** And the MIC ([4]; lowest MIC reached, read-out: minimum inhibitory concentration against Moraxella catarrhalis, as low as)?
**A.** Its MIC is ≥ 0.06 µg/mL.

**Q.** And the Anti-bacterial activity (MIC), strain BCA 14-10 ([4]; clinical isolate BCA 14-10)?
**A.** Its Anti-bacterial activity (MIC), strain BCA 14-10 is 0.06 µg/mL.

**Q.** And the MIC (anti-bacterial activity) ([4]; strain BCA 14-1)?
**A.** The MIC (anti-bacterial activity) was 0.25 µg/mL (≈ 0.575 µM).

**Q.** And the MIC (anti-bacterial activity) ([4]; strain BCA 14-4)?
**A.** The MIC (anti-bacterial activity) was 0.25 µg/mL (≈ 0.575 µM).

**Q.** What about the MIC (anti-bacterial activity) ([4]; strain BCA 14-5) of the same molecule?
**A.** Its MIC (anti-bacterial activity) is 0.06 µg/mL (≈ 0.138 µM).

**Q.** And the MIC (anti-bacterial activity) ([4]; strain BCA 14-6)?
**A.** Its MIC (anti-bacterial activity) is 0.06 µg/mL (≈ 0.138 µM).

**Q.** And the MIC (anti-bacterial activity) ([4]; strain BCA 14-7)?
**A.** Its MIC (anti-bacterial activity) is 0.03 µg/mL (≈ 0.069 µM).

**Q.** And the MIC (anti-bacterial activity) ([4]; strain BCA 14-8)?
**A.** Its MIC (anti-bacterial activity) is 0.125 µg/mL (≈ 0.288 µM).

**Q.** What about the MIC (anti-bacterial activity) ([5]; strain SPN 16-2) of the same molecule?
**A.** Its MIC (anti-bacterial activity) is 0.06 µg/mL (≈ 0.138 µM).

**Q.** And the MIC (anti-bacterial activity) ([5]; strain SPN 16-4)?
**A.** Its MIC (anti-bacterial activity) is 1 µg/mL (≈ 2.3 µM).

**Q.** And the MIC (anti-bacterial activity) ([6]; strain MRSA 15-1)?
**A.** The MIC (anti-bacterial activity) was 0.03 µg/mL (≈ 0.069 µM).

**Q.** What about the MIC (anti-bacterial activity) ([6]; strain MRSA 15-2) of the same molecule?
**A.** The MIC (anti-bacterial activity) was 0.06 µg/mL (≈ 0.138 µM).

**Q.** And the MIC (anti-bacterial activity) ([6]; strain MRSA 15-3)?
**A.** The MIC (anti-bacterial activity) was < 0.008 µg/mL.

**Q.** What about the MIC (anti-bacterial activity) ([6]; strain MRSA 15-4) of the same molecule?
**A.** Its MIC (anti-bacterial activity) is 0.06 µg/mL (≈ 0.138 µM).

**Q.** What about the MIC (anti-bacterial activity) ([7]; strain MRSE 15-1) of the same molecule?
**A.** Its MIC (anti-bacterial activity) is 0.015 µg/mL (≈ 0.0345 µM).

**Q.** What about the MIC (anti-bacterial activity) ([7]; strain MRSE 15-2) of the same molecule?
**A.** The MIC (anti-bacterial activity) was 0.125 µg/mL (≈ 0.288 µM).

**Q.** What about the MIC (anti-bacterial activity) ([7]; strain MRSE 15-3) of the same molecule?
**A.** The MIC (anti-bacterial activity) was 0.125 µg/mL (≈ 0.288 µM).

**Q.** What about the MIC (anti-bacterial activity) ([7]; strain MRSE 15-7) of the same molecule?
**A.** The MIC (anti-bacterial activity) was 0.125 µg/mL (≈ 0.288 µM).

**Q.** And the MIC (anti-bacterial activity) ([8]; strain MSSA 15-3)?
**A.** Its MIC (anti-bacterial activity) is 0.06 µg/mL (≈ 0.138 µM).

**Q.** And the MIC (anti-bacterial activity) ([8]; strain MSSA 15-4)?
**A.** Its MIC (anti-bacterial activity) is 0.03 µg/mL (≈ 0.069 µM).

**Q.** What about the MIC (anti-bacterial activity) ([8]; strain MSSA 15-5) of the same molecule?
**A.** The MIC (anti-bacterial activity) was 0.03 µg/mL (≈ 0.069 µM).

**Q.** What about the MIC (anti-bacterial activity) ([8]; strain MSSA 15-6) of the same molecule?
**A.** Its MIC (anti-bacterial activity) is 0.06 µg/mL (≈ 0.138 µM).

**Q.** What about the MIC (anti-bacterial activity) ([9]; strain MSSE 15-3) of the same molecule?
**A.** The MIC (anti-bacterial activity) was 0.125 µg/mL (≈ 0.288 µM).

**Q.** And the MIC (anti-bacterial activity) ([9]; strain MSSE 15-4)?
**A.** Its MIC (anti-bacterial activity) is 0.125 µg/mL (≈ 0.288 µM).

**Q.** And the MIC (anti-bacterial activity) ([9]; strain MSSE 15-5)?
**A.** The MIC (anti-bacterial activity) was 0.125 µg/mL (≈ 0.288 µM).

**Q.** And the MIC (anti-bacterial activity) ([9]; strain MSSE 15-6)?
**A.** Its MIC (anti-bacterial activity) is 0.03 µg/mL (≈ 0.069 µM).

**Q.** What about the inhibition at 30 µM ([10]; Table 5, read-out: Inhibition of proliferation, Colorectal cancer HCT116) of the same molecule?
**A.** Its inhibition at 30 µM is ≥ 30%.

**Q.** And the inhibition at 30 µM ([10]; read-out: HCT116 inhibition rate/%)?
**A.** The inhibition at 30 µM was 31%.

**Q.** And the inhibition at 30 µM [11]?
**A.** The inhibition at 30 µM was 20%.

**Q.** What about the inhibition at 30 µM ([12]; Homo sapiens, Bel-7402, 72 h) of the same molecule?
**A.** The inhibition at 30 µM was > 50%.

**Q.** What about the “Inhibition of proliferation, Liver cancer BEL-7402” value ([12]; 72 hours, 30 µM) of the same molecule?
**A.** Its value is 57%.

**Q.** And the inhibition at 30 µM [13]?
**A.** The inhibition at 30 µM was 27%.

**Q.** What about the MIC [14] of the same molecule?
**A.** Its MIC is < 0.008 µg/mL.
